# Results: the supplement of paper PMC10307832
# Legend:
# Assay in all cases: relative viability (nuclei count vs DMSO), 5 days (fraction); higher = more cells survive
# [1] = compound: C1=CC=C2C(=C1)N=C(S2)C(C#N)C3=NC(=NC=C3)NCCC4=CN=CC=C4 + O=C(c1cc(Cc2n[nH]c(=O)c3ccccc23)ccc1F)N1CCN(C(=O)C2CC2)CC1 [Olaparib] (partner 8 µM)
# Method in brief: (§1)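 Lung cancer cell lines in 1536-well plates got either a single drug or a fixed anchor-drug dose together with five library-drug doses (not always all listed) in √10 steps, by pin tool, on the day after seeding. Nuclei were counted after 5 days, and relative viability is the treated-to-vehicle ratio of nuclei counts. Values are medians of duplicate plates.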
# [2] = compound: COc1cc(N2CCC(N3CCN(C)CC3)CC2)ccc1Nc1ncc(Cl)c(Nc2ccccc2S(=O)(=O)C(C)C)n1 [NVP-TAE684] + Cc1nc(NC(=O)N2CCC[C@H]2C(N)=O)sc1-c1ccnc(C(C)(C)C(F)(F)F)c1 [Alpelisib] (partner 2 µM)
# Method in brief: as §1
# [3] = compound: C1=CC=C2C(=C1)N=C(S2)C(C#N)C3=NC(=NC=C3)NCCC4=CN=CC=C4 + Nc1ncn([C@H]2C[C@H](O)[C@@H](CO)O2)c(=O)n1 [Decitabine] (partner 2 µM)
# Method in brief: as §1
# [4] = compound: COc1cc2/c(=N/c3ccc(Br)cc3F)nc[nH]c2cc1OCC1CCN(C)CC1 [Vandetanib] + COc1cccc2cc(-c3nc([C@H]4CC[C@H](C(=O)O)CC4)n4ncnc(N)c34)[nH]c12 [OSI-027] (partner 0.5 µM)
# Method in brief: as §1
Cell Line,relative viability ([1]; first compound 0.005 µM),relative viability ([1]; first compound 0.01581 µM),relative viability ([1]; first compound 0.05 µM),relative viability ([1]; first compound 0.1581 µM),relative viability ([1]; first compound 0.5 µM),relative viability ([2]; first compound 0.2 µM),relative viability ([2]; first compound 0.6325 µM),relative viability ([2]; first compound 2 µM),relative viability ([3]; first compound 0.005 µM),relative viability ([3]; first compound 0.01581 µM),relative viability ([3]; first compound 0.05 µM),relative viability ([3]; first compound 0.1581 µM),relative viability ([3]; first compound 0.5 µM),relative viability ([4]; first compound 0.02 µM),relative viability ([4]; first compound 0.06325 µM),relative viability ([4]; first compound 0.2 µM),relative viability ([4]; first compound 0.6325 µM),relative viability ([4]; first compound 2 µM)
SK-MES-1,0.821,0.76,0.617,0.798,0.569,0.691,1,0.827,0.48,0.405,0.372,0.409,0.41,0.678,0.559,0.691,0.618,0.448
SW 1573,0.337,0.491,0.496,0.508,0.484,0.574,0.827,0.592,0.36,0.497,0.252,0.436,0.504,0.508,0.57,0.653,0.634,0.534
